Experimental data as given in patent US7417062B2, “Substituted arylamides” (ChemoCentryx, Inc., priority 2004, dated 2008).

Target: T1, CCXCKR2 receptor (Homo sapiens, UniProt P25106)
T1 construct: host or cells: MCF-7 (endogenous) and/or MDA-MB-435S transfected with hRDC1 in pcDNA3.1(+)
Assay: Displacement of 125I-labeled SDF-1 from the CCXCKR2 receptor (radioligand binding, determination of IC50 values)
Conditions: MCF-7 and/or MDA-MB-435S cells expressing CCXCKR2; 125I SDF-1; 3 hr at 4° C.; read-out: Activity (ability to displace 125I SDF-1 from CCXCKR2)
Method: The ability of the compounds to displace the labeled chemokine from the CCXCKR2 receptor sites at multiple concentrations was then determined with the screening process.
Compounds that were deemed effective modulators were able to displace at least 50% of the SDF-1 from the CCXCKR2 receptor at concentrations at or below 10 micromolar (μM) and more preferably at concentrations at or below 2 micromolar. At present, especially preferred compounds can displace at least 50% of the SDF-1 from the CCXCKR2 receptor at concentrations at or below 500 nM. Exemplary compounds that met these criteria are reproduced in Table B below. All compounds were prepared as described in the Examples above, or by related methods substituting readily available starting materials.
Reagents and Cells. ^125I-labeled SDF-1 was purchased from Perkin-Elmer Life Sciences, Inc. (Boston, Mass.). The MCF-7 (adenocarcinoma; mammary gland) cell line was obtained from the American Type Culture Collection (Manassas, Va.) or and was cultured in DMEM (Mediatech, Herndon, Va.) supplemented with 10% fetal bovine serum (FBS) (HyClone Logan, Utah) and bovine insulin (0.01 mg/mL) (Sigma, St. Louis, Mo.) at 37° C. in a humidified incubator at a 5% CO2/air mixture. CCXCKR2 transfected MDA-MB-435S were produced as described below. MDA-MB-435S human breast cancer line, was purchased from ATCC, and cultured in DMEM/10% FBS medium. The complete coding sequence of the gene encoding CCXCKR2 (a.k.a.CXCR7, hRDC1), was isolated from MCF-7 cells using μMACs mRNA isolation kit (Miltenyi Biotec, Auburn, Calif.). DNA contamination was removed by DNase digestion via RNeasy columns (Qiagen, Inc., Valencia, Calif.) and cDNA was generated using GeneAmp RNA PCR Core Kit (Applied Biosystems, Foster City, Calif.). PCR of cDNA samples was performed using Taq PCR Master Mix kit (Qiagen, Inc.) and hRDC1 primers harboring 5′ and 3′ Not I sites (hRDC1F 5′-[…]-3′ (SEQ ID NO:1), hRDC1R 5′-[…]-3′ (SEQ ID NO:2)) Not I digested PCR product was ligated into Not I digested pcDNA3.1(+)(Invitrogen, Carlsbad, Calif.) and screened for orientation and sequence confirmed. Plasmid DNA was then isolated from overnight bacterial cultures by Maxiprep (Qiagen, Inc.). Plasmid DNA (10 μg) was added to MDA-MB-435s cells and cells were electroporated (0.22 kV, 960 uF) via Gene Pulser (Biorad laboratories, Hercules, Calif.). 48 hr post-electroporation, cells were transferred to selection medium (1000 ug/ml G418).
Binding Analysis. Target compounds were tested to determine their ability to bind with CCXCKR2 sites on MCF-7 and/or MDA-MB-435S cells. Efficiency-maximized radioligand binding using filtration protocols as described in Dairaghi D J, et al., HHV8-encoded vMIP-I selectively engages chemokine receptor CCR5. Agonist and antagonist profiles of viral chemokines., J. Biol. Chem. 1999 Jul. 30; 274(31): 21569-74 and Gosling J, et al., Cutting edge: identification of a novel chemokine receptor that binds dendritic cell-and T cell-active chemokines including ELC, SLC, and TECK., J. Immunol. 2000 Mar. 15; 164(6):2851-6 was used.
In these assays, MCF-7 and/or MDA-MB-435S cells were interrogated with the target compounds and the ability of these compounds to displace ^125I radiolabeled SDF-1 was assessed using the protocol described in Dairaghi and Gosling. The target compounds were added to the plate to the indicated concentration and were then incubated with cells followed by the addition of radiolabeled chemokine (^125I SDF-1) for 3 hr at 4° C. in the following binding medium (25 mM HEPES, 140 mM NaCl, 1 mM CaCl2, 5 mM MgCl2 and 0.2% bovine serum albumin, adjusted to pH 7.1). All assays were then incubated for 3 hrs at 4° C. with gentle agitation. Following incubation in all binding assays, reactions were aspirated onto PEI-treated GF/B glass filters (Packard) using a cell harvester (Packard) and washed twice (25 mM HEPES, 500 mM NaCl, 1 mM CaCl2, 5 mM MgCl2, adjusted to pH 7.1). […]

T1 sequence (P25106 whole entry): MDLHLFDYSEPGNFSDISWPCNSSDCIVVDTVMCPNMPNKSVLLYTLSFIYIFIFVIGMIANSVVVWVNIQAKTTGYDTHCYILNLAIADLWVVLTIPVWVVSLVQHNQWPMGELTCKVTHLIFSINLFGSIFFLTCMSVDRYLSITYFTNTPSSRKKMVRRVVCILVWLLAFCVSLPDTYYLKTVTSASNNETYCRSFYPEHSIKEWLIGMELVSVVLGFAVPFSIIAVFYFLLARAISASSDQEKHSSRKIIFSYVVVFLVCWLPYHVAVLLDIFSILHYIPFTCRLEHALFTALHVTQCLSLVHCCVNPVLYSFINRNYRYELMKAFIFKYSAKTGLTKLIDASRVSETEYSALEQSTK

SMILES: COc1cc(C(=O)N(CCC2CCCN2C)CC2=C(Cl)c3cc(F)ccc3OC2)cc(OC)c1OC (stereo not drawn)
- IC50: < 500 nM

SMILES: COc1cc(C(=O)N(CCC2CCCN2C)Cc2cc3ccccc3n2C)cc(OC)c1OC (stereo not drawn)
- IC50: < 500 nM

SMILES: COc1ccc(C(=O)N(C[C@@H]2CCCN2CC2CCCCC2)c2ccc(-c3ccccc3)cc2)cc1OC
- IC50: < 10000 nM

SMILES: COc1ccc(C(=O)N(C[C@@H]2CCCN2CC2CCCCC2)c2cccc(-c3csc(C)n3)c2)cc1OC
- IC50: < 2000 nM

SMILES: COc1cc(C(=O)N(Cc2cc3cc(Cl)ccc3o2)C[C@@H]2CCCN2)ccc1OC(F)F
- IC50: < 500 nM

SMILES: COc1cc(C(=O)N(Cc2cnc3ccccc3c2)C[C@@H]2CCCN2C2CCC2)cc2c1OC(C)(C)O2
- IC50: < 10000 nM

SMILES: COc1cc(C(=O)N(Cc2cnc3ccccc3c2)C[C@@H]2C[C@@H]3CCCC[C@@H]3N2)cc2c1OC(C)(C)O2
- IC50: < 2000 nM

SMILES: COc1cc(C(=O)N(Cc2nc(-c3ccccn3)sc2Cl)C[C@@H]2CCCN2C2CCC2)cc2c1OC(C)(C)O2
- IC50: < 10000 nM

SMILES: COc1ccc(C(=O)N(Cc2ccc3ccccc3c2)C[C@@H]2CCCN2CC2CCCCC2)cc1OC [Example 1, N—(S)-(1-Cyclohexylmethyl-pyrrolidine-2-ylmethyl)-3,4-dimethoxy-N-naphthalen-2-ylmethyl-benzamide]
- IC50: < 500 nM

SMILES: COc1ccc(C(=O)N(Cc2ccc3ccccc3c2)C[C@@H]2CCCN2CC2CC=CCC2)cc1OC (stereo partly drawn) [Example 1a]
- IC50: < 500 nM

SMILES: COc1ccc(C(=O)N(Cc2cnc3ccccc3c2)C[C@@H]2CCCN2CC2CCCCC2)cc1OC [Example 2, N—(S)-(1-Cyclohexylmethyl-pyrrolidin-2-ylmethyl)-3,4-dimethoxy-N-quinolin-3-ylmethyl-benzamide]
- IC50: < 2000 nM

SMILES: COc1ccc(C(=O)N(Cc2cc3ccccc3o2)C[C@@H]2CCCN2CC2CCCCC2)cc1OC [Example 3, N-benzofuran-2-ylmethyl-N—(S)-(1-cyclohexylmethyl-pyrrolidin-2-ylmethyl)-3,4-dimethoxy-benzamide]
- IC50: < 500 nM

SMILES: COc1cc(C(=O)N(Cc2cc3ccccc3o2)C[C@@H]2CCCN2CC2CCCCC2)cc(OC)c1OC [Example 4, N-Benzofuran-2-ylmethyl-N—(S)-(1-cyclohexylmethyl-pyrrolidin-2-ylmethyl)-3,4,5-trimethoxy-benzamide]
- IC50: < 500 nM

SMILES: COc1cc(C(=O)N(CCC2CCCN2C)Cc2ccc3ccccc3c2)cc(OC)c1OC (stereo not drawn) [Example 5, 3,4,5-Trimethoxy-N-[2-(1-methyl-pyrrolidin-2-yl)-ethyl]-N-naphthalen-2ylmethyl-benzamide]
- IC50: < 500 nM

SMILES: COc1cc(C(=O)N(CCC2CCCN2C)Cc2cccc3ccccc23)cc(OC)c1OC (stereo not drawn) [Example 6, 3,4,5-Trimethoxy-N[2-(1-methyl-pyrrolidin-2-yl)-ethyl]-N-naphthalen-1-ylmethyl-benzamide]
- IC50: < 2000 nM

SMILES: COc1cc(C(=O)N(CCC2CCCN2C)Cc2cc3ccccc3o2)cc(OC)c1OC (stereo not drawn) [Example 7, N-Benzofuran-2-ylmethyl-3,4,5-trimethoxy-N-[2-(1-methyl-pyrrolidin-2-yl)-ethyl]-benzamide]
- IC50: < 500 nM

SMILES: COc1cc(C(=O)N(CCC2CCCN2C)Cc2cc3ccccc3s2)cc(OC)c1OC (stereo not drawn) [Example 8, N-Benzo[b]thiophen-2-ylmethyl-3,4,5-trimethoxy-N-[2-(1-methyl-pyrrolidin-2-yl)-ethyl]-benzamide]
- IC50: < 500 nM

SMILES: COc1cc(C(=O)N(CCC2CCCN2C)Cc2ccc3c(c2)OCCO3)cc(OC)c1OC (stereo not drawn) [Example 9, N-(2,3-Dihydro-benzo[1,4]dioxin-6-ylmethyl)-3,4,5-trimethoxy-N-[2-(1-methyl-pyrrolidin-2-yl)-ethyl]-benzamide]
- IC50: < 500 nM

SMILES: COc1cc(C(=O)N(CCC2CCCN2C)Cc2cnc3ccccc3c2)cc(OC)c1OC (stereo not drawn) [Example 10]
- IC50: < 10000 nM

SMILES: COc1cc(C(=O)N(CCC2CCCN2C)Cc2ccc3ccccc3n2)cc(OC)c1OC (stereo not drawn) [Example 11]
- IC50: < 500 nM

SMILES: COc1cc(C(=O)N(CCC2CCCN2C)Cc2csc3ccccc23)cc(OC)c1OC (stereo not drawn) [Example 12, N-Benzo[b]thiophen-3-ylmethyl-3,4,5-trimethoxy-N-[2-(1-methyl-pyrrolidin-2-yl)-ethyl]-benzamide]
- IC50: < 2000 nM
